Results: patent US12214047B2, “FAP-activated proteasome inhibitors for treating solid tumors” (Trustees of Tufts College, priority 2011, dated 2025)
Entries after “also recorded” stand apart in the source; their conditions may differ. Blank lines part the entries; values can stand above or below the molecule they belong to.

How the values were obtained:
[1] = test system: FAP-transfected HEK tumor xenograft; experiment: Anticancer activity in FAP-transfected HEK tumor xenograft, 40-day study; format: in vivo, mice
From the text: Having determined the levels of FAP expression in the HEK xenograft model, the anticancer activity of ARI-3996 was next evaluated in a 40-day study. […] It also suffers conformation-dependent inactivation over time.

solid tumors = experiment: Cytotoxicity toward solid tumors; format: cell-based
MM cell lines = experiment: Cytotoxicity toward Multiple Myeloma cell lines; format: cell-based; settings: various MM cell lines
FAP = experiment: Activation of ARI-3996 to release ARI-2727 in FAP knockout versus FAP+ mice; format: in vivo; settings: FAP+ mice treated with ARI-3996
Method: Mouse models may over-report systemic toxicity of ARI-3996 compared with that possible in cancer patients. This was further verified by treatment of FAP knockout mice with ARI-3996. In knockout mice (FIG. 21), no activation of ARI-3996 to release ARI-2727 took place, whereas in FAP+ mice a concentration of the released warhead ARI-2727 of 150 ng/mL was reached.

normal cells = experiment: Cytotoxicity toward normal cells; format: cell-based
[2] = Tissue distribution of Velcade, ARI-3996 and ARI-2727D in mice; format: in vivo
Method: ARI-3996 is cleaved to ARI-2727D in and around tumors, thus facilitating the buildup of ARI-2727D in tumors.
Velcade®'s high toxicity would also result from the accumulation of the drug in the organs at the expense of accumulation in the tumor. […] Thus ARI-2727D is being selectively delivered to solid tumors via FAP activation of ARI-3996.
Finally, FAP activation was verified as the mode by which ARI-2727D tumor accumulation was taking place. In FIG. 24, ARI-2727D concentrations at 1 hour post-injection were compared with ARI-2727D concentrations 1 hour after injection of the prodrug form (ARI-3996).

DPPII = DPPII (Homo sapiens, UniProt Q9UHL4); experiment: In vitro cleavage of fluorogenic substrate ARI-3144 (AMC fluorescence); format: biochemical; settings: fluorescence of released AMC
From the text: (§1) The D-alanine at P2 of the fluorogenic substrate, N-(Quinoline-4-carbonyl)-D-Ala-Pro-AMC [AMC=7-amino-4-methylcoumarin] (ARI-3144), confers selectivity for FAP so that it is cleaved to release fluorescent AMC by recombinant FAP but not by other DPP-IV-like proteases (FIG. 3). […] FAP is reportedly not expressed constitutively in healthy tissue with the exception of endometrium, although FAP proteolytic activity is detectable in plasma. […] The ability to measure FAP proteolytic activity in tumors is required to evaluate the usefulness of ARI-3996 as a chemotherapeutic agent. Hitherto, FAP activity has not been quantified in human or mouse tumors. […] We will use the assay to select a mouse tumor model for investigation of ARI-3996's activity in which the increase in tumor-associated FAP activity relative to plasma is equivalent to that in human epithelial cancer.

recombinant FAP = biological target: T1, recombinant FAP (Homo sapiens, UniProt Q12884); experiment: as above; format: biochemical; settings: fluorescence of released AMC
T1 sequence (Q12884 1-760): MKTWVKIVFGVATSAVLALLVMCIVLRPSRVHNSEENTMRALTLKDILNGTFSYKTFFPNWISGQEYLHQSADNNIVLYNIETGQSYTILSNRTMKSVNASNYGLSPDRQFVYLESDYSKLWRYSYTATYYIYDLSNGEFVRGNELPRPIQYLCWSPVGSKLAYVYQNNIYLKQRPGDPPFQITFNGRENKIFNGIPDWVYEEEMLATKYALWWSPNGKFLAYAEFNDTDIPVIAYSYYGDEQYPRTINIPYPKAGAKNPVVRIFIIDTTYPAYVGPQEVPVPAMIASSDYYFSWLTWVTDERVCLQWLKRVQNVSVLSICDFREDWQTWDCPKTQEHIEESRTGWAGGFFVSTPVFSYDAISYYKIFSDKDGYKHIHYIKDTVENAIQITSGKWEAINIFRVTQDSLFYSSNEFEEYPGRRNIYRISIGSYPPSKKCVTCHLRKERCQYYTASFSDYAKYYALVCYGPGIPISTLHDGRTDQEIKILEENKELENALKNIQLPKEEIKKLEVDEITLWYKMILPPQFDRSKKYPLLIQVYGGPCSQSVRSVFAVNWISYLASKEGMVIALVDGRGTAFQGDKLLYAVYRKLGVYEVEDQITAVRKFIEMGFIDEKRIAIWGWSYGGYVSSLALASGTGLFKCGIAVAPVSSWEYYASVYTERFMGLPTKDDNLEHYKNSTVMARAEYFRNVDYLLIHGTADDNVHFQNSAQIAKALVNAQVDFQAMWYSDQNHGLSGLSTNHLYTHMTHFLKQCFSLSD
From the text: (§2) Cleavage was monitored by measuring fluorescence of the AMC leaving group (excitation, 355 nm; emission, 460 nm).
as §1

PREP = biological target: T2, PREP (Homo sapiens, UniProt P48147); experiment: as above; format: biochemical; settings: fluorescence of released AMC
T2 sequence (P48147 1-710): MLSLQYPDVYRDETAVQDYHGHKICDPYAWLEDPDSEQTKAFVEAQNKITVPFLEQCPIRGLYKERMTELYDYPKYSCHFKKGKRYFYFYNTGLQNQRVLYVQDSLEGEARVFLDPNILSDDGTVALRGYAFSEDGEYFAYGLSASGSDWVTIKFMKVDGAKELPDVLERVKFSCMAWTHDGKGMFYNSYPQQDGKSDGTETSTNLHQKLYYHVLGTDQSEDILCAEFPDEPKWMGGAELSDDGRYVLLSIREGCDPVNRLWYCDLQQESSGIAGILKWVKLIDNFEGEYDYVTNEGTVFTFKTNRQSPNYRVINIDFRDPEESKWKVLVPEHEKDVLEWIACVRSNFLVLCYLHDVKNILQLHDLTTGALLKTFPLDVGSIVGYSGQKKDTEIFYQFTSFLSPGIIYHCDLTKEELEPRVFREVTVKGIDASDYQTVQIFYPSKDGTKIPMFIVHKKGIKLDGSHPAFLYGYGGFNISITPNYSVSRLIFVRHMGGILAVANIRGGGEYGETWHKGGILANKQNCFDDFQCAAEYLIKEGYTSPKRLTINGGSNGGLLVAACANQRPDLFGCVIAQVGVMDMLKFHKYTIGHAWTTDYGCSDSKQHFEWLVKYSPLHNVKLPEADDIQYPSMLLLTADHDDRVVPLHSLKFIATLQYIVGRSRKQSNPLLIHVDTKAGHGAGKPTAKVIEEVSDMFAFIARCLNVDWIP
From the text: as §2, §1

DPP9 = DPP9 (Homo sapiens, UniProt Q86TI2); experiment: as above; format: biochemical; settings: fluorescence of released AMC
DPP9, sequence (Q86TI2 whole entry, species assumed): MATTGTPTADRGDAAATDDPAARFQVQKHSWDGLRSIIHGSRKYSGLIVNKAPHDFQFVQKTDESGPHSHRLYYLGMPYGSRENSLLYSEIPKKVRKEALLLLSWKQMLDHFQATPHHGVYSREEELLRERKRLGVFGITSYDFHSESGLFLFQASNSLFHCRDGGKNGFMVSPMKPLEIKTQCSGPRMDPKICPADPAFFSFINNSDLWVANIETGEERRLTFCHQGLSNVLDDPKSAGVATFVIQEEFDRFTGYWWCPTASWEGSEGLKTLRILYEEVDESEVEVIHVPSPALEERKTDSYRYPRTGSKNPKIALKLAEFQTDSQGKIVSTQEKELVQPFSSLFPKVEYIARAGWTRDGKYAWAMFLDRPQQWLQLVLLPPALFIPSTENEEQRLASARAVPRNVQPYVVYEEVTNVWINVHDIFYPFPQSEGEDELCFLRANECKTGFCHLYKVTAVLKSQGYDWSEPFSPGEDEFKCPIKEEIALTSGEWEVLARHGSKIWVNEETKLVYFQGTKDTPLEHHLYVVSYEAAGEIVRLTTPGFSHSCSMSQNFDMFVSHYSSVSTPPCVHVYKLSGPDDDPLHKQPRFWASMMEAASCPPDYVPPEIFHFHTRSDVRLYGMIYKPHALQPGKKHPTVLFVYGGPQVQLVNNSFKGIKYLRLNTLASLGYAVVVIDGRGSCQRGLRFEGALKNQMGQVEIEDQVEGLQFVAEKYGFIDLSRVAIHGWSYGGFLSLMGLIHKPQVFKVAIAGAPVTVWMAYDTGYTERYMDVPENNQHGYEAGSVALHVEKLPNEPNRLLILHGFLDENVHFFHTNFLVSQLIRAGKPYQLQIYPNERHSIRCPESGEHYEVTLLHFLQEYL
From the text: as §2, §1

DPPIV = DPPIV (Homo sapiens, UniProt P27487); experiment: as above; format: biochemical; settings: fluorescence of released AMC
DPPIV, sequence (P27487 whole entry, species assumed): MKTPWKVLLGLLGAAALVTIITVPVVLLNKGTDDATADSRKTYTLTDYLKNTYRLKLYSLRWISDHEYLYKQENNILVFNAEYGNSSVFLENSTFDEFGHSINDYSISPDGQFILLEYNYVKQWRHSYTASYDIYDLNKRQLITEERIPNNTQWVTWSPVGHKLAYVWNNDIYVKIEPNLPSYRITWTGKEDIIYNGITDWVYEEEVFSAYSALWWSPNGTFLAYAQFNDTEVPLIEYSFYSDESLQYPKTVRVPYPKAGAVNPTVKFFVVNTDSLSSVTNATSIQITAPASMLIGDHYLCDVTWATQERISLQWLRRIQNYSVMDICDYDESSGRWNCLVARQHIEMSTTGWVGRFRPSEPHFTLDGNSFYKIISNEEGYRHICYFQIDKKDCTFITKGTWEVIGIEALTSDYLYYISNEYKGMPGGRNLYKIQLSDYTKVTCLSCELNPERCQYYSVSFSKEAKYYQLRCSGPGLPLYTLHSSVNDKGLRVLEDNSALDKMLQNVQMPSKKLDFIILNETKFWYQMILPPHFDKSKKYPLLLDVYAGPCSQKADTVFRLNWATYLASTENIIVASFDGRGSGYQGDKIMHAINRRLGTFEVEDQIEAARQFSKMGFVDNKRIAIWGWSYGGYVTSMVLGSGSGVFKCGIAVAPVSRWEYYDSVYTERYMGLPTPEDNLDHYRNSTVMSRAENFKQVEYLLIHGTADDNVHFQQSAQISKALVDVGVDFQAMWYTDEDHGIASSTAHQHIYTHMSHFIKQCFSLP
From the text: as §2, §1

DPP8 = DPP8 (Homo sapiens, UniProt Q6V1X1); experiment: as above; format: biochemical; settings: fluorescence of released AMC
DPP8, sequence (Q6V1X1 whole entry, species assumed): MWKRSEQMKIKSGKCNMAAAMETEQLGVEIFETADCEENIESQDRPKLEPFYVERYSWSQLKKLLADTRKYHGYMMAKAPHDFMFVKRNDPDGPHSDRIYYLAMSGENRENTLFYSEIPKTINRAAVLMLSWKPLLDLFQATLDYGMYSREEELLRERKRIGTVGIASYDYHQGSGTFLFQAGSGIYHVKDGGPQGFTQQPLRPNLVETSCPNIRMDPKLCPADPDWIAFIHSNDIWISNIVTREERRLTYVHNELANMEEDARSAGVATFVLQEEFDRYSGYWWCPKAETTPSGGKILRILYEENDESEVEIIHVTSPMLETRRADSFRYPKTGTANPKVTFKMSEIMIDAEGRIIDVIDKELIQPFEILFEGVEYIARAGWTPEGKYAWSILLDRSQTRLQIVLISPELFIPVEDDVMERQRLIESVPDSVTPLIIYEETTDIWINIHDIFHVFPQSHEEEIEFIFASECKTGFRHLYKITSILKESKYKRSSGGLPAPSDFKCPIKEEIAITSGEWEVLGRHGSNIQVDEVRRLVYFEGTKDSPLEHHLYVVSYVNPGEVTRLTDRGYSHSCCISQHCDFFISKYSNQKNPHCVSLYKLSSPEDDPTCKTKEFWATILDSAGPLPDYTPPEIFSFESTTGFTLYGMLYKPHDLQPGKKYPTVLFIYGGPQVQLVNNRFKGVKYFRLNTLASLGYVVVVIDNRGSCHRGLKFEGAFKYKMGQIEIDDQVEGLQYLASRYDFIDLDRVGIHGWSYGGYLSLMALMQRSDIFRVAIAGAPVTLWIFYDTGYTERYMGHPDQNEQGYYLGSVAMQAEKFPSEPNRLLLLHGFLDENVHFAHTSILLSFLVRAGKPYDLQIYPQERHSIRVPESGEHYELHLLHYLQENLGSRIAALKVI
From the text: as §2, §1

[3] = mice bearing PC3 prostate tumors; cited from earlier work
U266 tumor xenografts = experiment: Anticancer effects in U266 tumor-bearing mice (ELISA and bioluminescence); format: in vivo; settings: ARI-3996 50 mg/kg, Velcade 0.5 mg/kg, twice a week for 2 weeks
Method: ARI-3996 consistently outperformed Velcade® in a mouse MM model. Mice bearing U266 tumor xenografts (2 female, 2 male) were treated with either the vehicle, ARI-3996, or Velcade® twice a week (day 1 and day 4) for 2 weeks. […] The inhibition of the tumor was evaluated using ELISA (μg/mL) and bioluminescence.

[4] = Maximum tolerated dose in mice; format: in vivo
[5] = test system: HPAF-II carcinoma xenografts; settings: HPAF-II xenograft; ARI-3996 100 mg/kg i.p., bortezomib 1 mg/kg
Method: ARI-3996 and bortezomib were administered twice weekly (day (D)1/D4 schedule), and ARI-3996 was also given from day 1 to day 5 for 5 consecutive days (QD×5 schedule).
One-way ANOVA with Dunnett's post test for test versus vehicle (P<0.0001).
ARI-3996 b.i.d. s.c. and gemcitabine once per day i.p. were administered twice weekly. Mean±SEM.

Concentration of the released warhead ARI-2727 (FAP): 150 ng/mL
SMILES: CC(C)CC(NC(=O)C(N)Cc1cccc2ccccc12)B(O)O (centres unmarked) [ARI-2727D, Ala(1-Nal)-boroLeu]
Tumor growth inhibition [1]: potent tumor inhibition
Cytotoxicity (solid tumors): much lower
Cytotoxicity (MM cell lines): extremely high potency
Cytotoxicity (normal cells): slightly lower toxicity
Tissue distribution of ARI-2727D after injection of prodrug ([2]; 1 hour after injection of ARI-3996): highest concentration of ARI-2727D was found in the tumor
Tissue distribution of ARI-2727D after direct injection ([2]; 1 hour post-injection of ARI-2727D): highest concentration of the drug accumulating in the kidneys and lung
Tissue distribution of ARI-2727D formed from ARI-3996 ([2]; mice given ARI-3996): much higher relative concentrations in the tumor

Cleavage by DPPII (DPPII): no cleavage
Cleavage by FAP (recombinant FAP): excellent substrate for FAP
Cleavage by PREP (PREP): no cleavage
Cleavage by DPP9 (DPP9): no cleavage
Cleavage by DPPIV (DPPIV): no cleavage
Cleavage by DPP8 (DPP8): no cleavage
SMILES: Cc1cc(=O)oc2cc(NC(=O)[C@@H]3CCCN3C(=O)[C@@H](C)NC(=O)c3ccnc4ccccc34)ccc12 [ARI-3144, N-(Quinoline-4-carbonyl)-D-Ala-Pro-AMC]

SMILES: CC(C)C[C@H](NC(=O)[C@H](Cc1ccccc1)NC(=O)c1cnccn1)B(O)O [^14C-bortezomib]
Healthy organ exposure relative to tumor exposure [3]: ≤ 9 fold

SMILES: CC(C)C[C@H](NC(=O)[C@H](Cc1ccccc1)NC(=O)c1cnccn1)B(O)O [bortezomib, reference compound]
Tumor growth inhibition [1]: hardly slowed the growth of the tumors
Cytotoxicity (solid tumors): much lower
Deaths / survival (U266 tumor xenografts): 1
Cytotoxicity (MM cell lines): extremely high potency
Cytotoxicity (normal cells): slightly lower toxicity
Tissue distribution of the administered drug ([2]; mouse, in vivo): much higher concentrations in the heart, lung, kidney, liver, spleen, and lung than in the tumor
MTD (maximum tolerated dose) [4]: 1 mg/kg
Antitumor effect at MTD [5]: refractory; also recorded: lacks significant antitumor activity
